US12286632B2, “Rationally-designed synthetic peptide shuttle agents for delivering polypeptide cargos from an extracellular space to the cytosol and/or nucleus of a target eukaryotic cell, uses thereof, methods and kits relating to same” (Feldan Bio Inc., priority 2016, dated 2025)

Columns and labels:
[1] = in vitro; conditions: human, HeLa cells
[2] = system: rat parietal cortex; test: In vivo GFP-NLS delivery by stereotaxic injection, fluorescence microscopy of brain slices; conditions: shuttle 20 μM + GFP-NLS 20 μM, 5 μL injected over 10 min; sacrificed 2 h after surgery
Protocol: In separate sterile 1.5-mL tubes, shuttle agent His-CM18-PTD4 was diluted in sterile distilled water at room temperature. […] One negative control was included for the experiment, which corresponds to the injection of the GFP-NLS alone.
Bilateral injections were performed in the parietal cortex of three rats. In the left parietal cortex (ipsilateral), a mix composed of the shuttle agent (20 μM) and the GFP-NLS (20 μM) was injected, and in the right parietal cortex (contralateral), only the GFP-NLS (20 μM) was injected as a negative control. For surgical procedures, […] were anesthetized with isoflurane. Then the animal was placed in a stereotaxic frame, and the skull surface was exposed. Two holes were drilled at the appropriate sites to allow bilateral infusion of the shuttle/cargo mix or GFP-NLS alone (20 μM) with 5-μL Hamilton syringe. Antero-posterior (AP), lateral (L), and dorso-ventral (DV) coordinates were taken relative to the bregma: (a) AP+0.48 mm, L±3 mm, V-5 mm; (b) AP-b 2 mm, L±1.3 mm, V-1.5 mm; (c) AP-2.6 mm, L 1.5 mm, V-1.5 mm. The infused volume of the shuttle/cargo mix or cargo alone was 5 μL per injection site and the injection was performed for 10 minutes. […]
Dorso-ventral rat brain slices were collected and analysed by fluorescence microscopy and results are shown in at 4× (FIG. 48A), 10× (FIG. 48C) and 20× (FIG. 48D) magnifications. […]

[3] = system: HeLa cells; test: Transfection plasmid surrogate assay for delivered CRISPR/Cas9-NLS complex (mCherry/GFP fluorescence); format: cell-based, Human; conditions: shuttle 35 μM; 24 and 48 hours post-transduction
Text: This assay enables one to visually identify cells that have been successfully delivered an active […]as9 complex. […] Transfection of the cells with the expression plasmid results in mCherry™ expression, but no GFP expression (FIG. 39B). […] Successful transduction of an active CRISPR/Cas9 complex results in the CRISPR/Cas9 complex cleaving the plasmid DNA at the STOP codon (FIG. 39C). In a fraction of the cells, random non-homologous DNA repair of the cleaved plasmid occurs and results in removal of the STOP codon, and thus GFP expression and fluorescence (FIG. 39E).
On Day 1 of the transfection plasmid surrogate assay, DNA plasmids for different experimental conditions (250 ng) are diluted in DMEM (50 μL) in separate sterile 1.5-mL tubes, vortexed and briefly centrifuged. In separate sterile 1.5-mL tubes, Fastfect™ transfection reagent was diluted in DMEM (50 μL) with no serum and no antibiotics at a ratio of 3:1 (3 μL of Fastfect™ transfection reagent for 1 μg of DNA) and then quickly vortexed and briefly centrifuged. The Fastfect™/DMEM mixture was then added to the DNA mix and quickly vortexed and briefly centrifuged. The Fastfect™/DMEM/DNA mixture is then incubated for 15-20 min at room temperature, before being added to the cells (100 μL per well). The cells are then incubated at 37° C. and 5% CO2 for 5 h. […]

[4] = system: HeLa cells; test: GFP-NLS protein transduction assay (flow cytometry: Pos cells %, viability %, relative fluorescence intensity; microscopy); conditions: for Relative fluorescence intensity (FL1-A) (n = 3): Table 10.3, Protocol C
[5] = HeLa, Protocol B, 35 μM shuttle, 5 μM GFP-NLS, 10 seconds
[6] = Table 10.3a, Protocol B, HeLa, shuttle 50 μM, GFP-NLS 5 μM, 10 seconds

SMILES: CC[C@H](C)[C@H](NC(=O)[C@H](CCCCN)NC(=O)[C@H](CCCCN)NC(=O)[C@H](Cc1ccccc1)NC(=O)[C@H](CC(C)C)NC(=O)[C@H](CCCCN)NC(=O)[C@H](Cc1c[nH]c2ccccc12)NC(=O)[C@H](CCCCN)NC(=O)[C@H](Cc1c[nH]cn1)NC(=O)[C@H](Cc1c[nH]cn1)NC(=O)[C@H](Cc1c[nH]cn1)NC(=O)[C@H](Cc1c[nH]cn1)NC(=O)[C@H](Cc1c[nH]cn1)NC(=O)[C@@H](N)Cc1c[nH]cn1)C(=O)NCC(=O)N[C@@H](C)C(=O)N[C@H](C(=O)N[C@@H](CC(C)C)C(=O)N[C@@H](CCCCN)C(=O)N[C@H](C(=O)N[C@@H](CC(C)C)C(=O)N[C@H](C(=O)N[C@H](C(=O)NCC(=O)N[C@@H](Cc1ccc(O)cc1)C(=O)N[C@@H](C)C(=O)N[C@@H](CCCNC(=N)N)C(=O)N[C@@H](C)C(=O)N[C@@H](C)C(=O)N[C@@H](C)C(=O)N[C@@H](CCCNC(=N)N)C(=O)N[C@@H](CCC(N)=O)C(=O)N[C@@H](C)C(=O)N[C@@H](CCCNC(=N)N)C(=O)N[C@@H](C)C(=O)O)[C@@H](C)O)[C@@H](C)O)C(C)C)C(C)C [His-CM18-PTD4]
- viability [1]: 63.2 ± 4.07%
- in vivo delivery of GFP-NLS to cell nuclei [2]: delivery of the GFP-NLS in the nucleus of cells from the deeper layers of the parietal cortex (injection site) to the corpus callus and the dorsal level of the striatum (putamen)
- GFP expression after CRISPR/Cas9-NLS cleavage of plasmid surrogate [3]: GFP fluorescence, the latter resulting from removal of the STOP codon by the transduced CRISPR/Cas9-NLS complex
- Cell viability (%) (±St. Dev.; n = 3) [4, 5]: 94.6 ± 0.4%
- Mean % cells with GFP signal (±St. Dev.; n = 3) [4, 5]: 72.3 ± 5.3%
- Mean % cells with GFP signal (±St. Dev.; n = 3) ([4]; Table 9.1, Protocol A, HeLa, shuttle 10 μM, GFP-NLS 5 μM, 1 hour): 25.4 ± 3.6%
- Mean % cells with GFP signal (±St. Dev.; n = 3) ([4]; Table 9.1, Protocol B, HeLa, shuttle 35 μM, GFP-NLS 5 μM, 10 seconds): 78.3 ± 5.3%
- Mean % cells with GFP signal (±St. Dev.; n = 3) ([4]; Table 9.2, Protocol B, HeLa, shuttle 10 μM, GFP-NLS 5 μM, 10 seconds): 25.3 ± 3.6%
- Mean % cells with GFP signal (±St. Dev.; n = 3) ([4]; Table 9.2, Protocol B, HeLa, shuttle 25 μM, GFP-NLS 5 μM, 10 seconds): 62.1 ± 6.1%
- Mean % cells with GFP signal (±St. Dev.; n = 3) ([4]; Table 9.2, Protocol B, HeLa, shuttle 35 μM, GFP-NLS 5 μM, 10 seconds): 77.7 ± 7.8%
- Mean % cells with GFP signal (±St. Dev.; n = 3) ([4]; Table 9.2, Protocol B, HeLa, shuttle 50 μM, GFP-NLS 5 μM, 10 seconds): 73.2 ± 5.2%
- Mean % cells with GFP signal (±St. Dev.; n = 3) ([4]; Table 10.1, Protocol B, HeLa, shuttle 50 μM, GFP-NLS 5 μM, 10 seconds): 68 ± 2.2%
- Mean % cells with GFP signal (±St. Dev.; n = 3) ([4]; Table 10.2, Protocol B, HeLa, shuttle 10 μM, GFP-NLS 5 μM, incubation 1 min.): 50.6 ± 3.5%
- Mean % cells with GFP signal (±St. Dev.; n = 3) ([4]; Table 10.2, Protocol B, HeLa, shuttle 10 μM, GFP-NLS 5 μM, incubation 2 min.): 74 ± 3.3%
- Mean % cells with GFP signal (±St. Dev.; n = 3) ([4]; Table 10.2, Protocol B, HeLa, shuttle 10 μM, GFP-NLS 5 μM, incubation 5 min.): 82.7 ± 5.0%
- Relative fluorescence intensity (FL1-A) (n = 3) ([4]; HeLa, shuttle 10 μM, GFP-NLS 5 μM, incubation 1 min.): 524 151
- Relative fluorescence intensity (FL1-A) (n = 3) ([4]; HeLa, shuttle 10 μM, GFP-NLS 5 μM, incubation 2 min.): 755 624
- Relative fluorescence intensity (FL1-A) (n = 3) ([4]; HeLa, shuttle 10 μM, GFP-NLS 5 μM, incubation 5 min.): 173 930
- Cell viability (%) (±St. Dev.; n = 3) [4, 6]: 92 ± 3.6%
- Mean % cells with GFP signal (±St. Dev.; n = 3) [4, 6]: 68 ± 2.2%
- Mean % cells with GFP signal (±St Dev.; n = 3) ([4]; Table 10.3e, Protocol B, HeLa, shuttle 20 μM, GFP-NLS 5 μM, 1 minute): 60.3 ± 3.2%
- GFP-NLS transduction efficiency ([4]; peptide 20 μM, GFP-NLS 5 μM, 1 minute, Protocol B (Table 10.3e)): 60%
- GFP-NLS delivery (microscopy, in words) ([4]; shuttle 35 μM, GFP-NLS 5 μM, 10 seconds, Protocol B): successfully transduced and delivered to the nucleus and/or the cytosol
- time by which GFP-NLS is delivered to the nucleus ([4]; shuttle 50 μM, GFP-NLS 5 μM, exposed 10 seconds, Protocol B, microscopy): ≤ 2 min
